Assay results from paper PMC4130364, “Kinetics of Mushroom Tyrosinase and Melanogenesis Inhibition by N-Acetyl-pentapeptides” (The Scientific World Journal, 2014).

What was measured:
mushroom tyrosinase [1] = biological target: T1, mushroom tyrosinase (Agaricus bisporus, UniProt C7FF04); experiment: Kinetic analysis of tyrosinase inhibition (Lineweaver-Burk plots); type: biochemical; details: for Inhibition type: Lineweaver-Burk plot analysis; for K IS: inhibition constant from secondary plot (enzyme-substrate complex); for K IS / Ki: L-DOPA 0.25-4 mM, inhibitor 0, 0.1, 0.2 mg/mL; for Ki: inhibition constant from secondary plot
T1 sequence (C7FF04 1-392): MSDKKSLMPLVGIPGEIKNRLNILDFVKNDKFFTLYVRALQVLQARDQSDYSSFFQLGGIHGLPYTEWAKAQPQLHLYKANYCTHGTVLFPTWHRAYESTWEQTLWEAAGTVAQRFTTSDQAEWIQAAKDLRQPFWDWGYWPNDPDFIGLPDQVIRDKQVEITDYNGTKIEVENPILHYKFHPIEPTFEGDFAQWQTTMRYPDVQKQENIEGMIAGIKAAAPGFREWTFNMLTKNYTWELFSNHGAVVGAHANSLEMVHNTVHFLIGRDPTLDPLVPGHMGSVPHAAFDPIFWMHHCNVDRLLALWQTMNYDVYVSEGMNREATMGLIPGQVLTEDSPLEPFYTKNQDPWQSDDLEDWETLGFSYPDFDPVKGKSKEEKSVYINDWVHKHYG
Experimental: In a 96-well plate, the kinetic properties of N-acetyl-pentapeptides (20 μL of 0, 0.1, and 0.2 mg/mL) in the inhibition of tyrosinase (20 μL of 212.65 μg/mL) were determined using various concentrations of L-DOPA (160 μL of 0.25, 0.5, 1, 2, and 4 mM) as substrates. The reaction mixture was measured using an ELISA reader at 475 nm for 10 min. All experiments were conducted in triplicate. The inhibition mechanism was assessed using Lineweaver-Burk plots, and the inhibition constants K IS and K I were obtained from second plots of the apparent 1/V max and apparent K m/V max against the inhibitor concentration, respectively, as described by Liao et al..

mushroom tyrosinase [2] = biological target: T1, mushroom tyrosinase; experiment: Inhibitory effect on mushroom tyrosinase (diphenolase activity, oxidation of L-DOPA); type: biochemical; details: for IC50: 1 mM L-DOPA substrate, 25°C, 30 min, means ± SD of three replicates, read-out: IC50 against diphenolase activity of mushroom tyrosinase (converted)
Experimental: In a 96-well plate, 20 μL of 0, 0.01, 0.05, 0.1, 0.2, 0.5, and 1 mg/mL of N-acetyl-pentapeptides was mixed with 160 μL of 1 mM L-DOPA. After 20 μL of 212.65 μg/mL of mushroom tyrosinase (in 50 mM potassium phosphate buffer) was added, the solutions were incubated at 25°C for 30 min. All experiments were conducted in triplicate. The absorbance was measured at 475 nm by using an ELISA reader (TECAN, Austria). The tyrosinase inhibitory activity was calculated using the following equation: [(Δcontrol − Δsample)/Δcontrol] × 100%. The IC50 value was determined using regression of a constructing dose-response curve at which 50% target activity is lost.

diphenolase = test system: diphenolase; parameters: method as in PMID 7714722; details: ref [40], [41]; cited from earlier work
B16F10 melanoma cells = experiment: Assessment of cellular melanin content (α-MSH-induced melanogenesis); type: cell-based, mouse
Experimental: Cellular melanin content was determined as described previously. Briefly, 1 × 10^5 B16F10 cells were seeded in 24-well plates and cultured at 37°C and 5% CO2 for 48 h. Subsequently, the cells were treated with 100 nM α-MSH for 24 h, followed by various concentrations (0, 0.1, 0.5, and 1 mg/mL) of Ac-P4 or kojic acid for 24 h. The cells were washed twice with PBS and cell pellets were then dissolved in 100 μL of 1 N NaOH in 10% DMSO, for 1 h at 80°C. The relative melanin content was determined by measuring the absorbance at 405 nm, using the ELISA reader (TECAN, Austria). The melanin content was calculated using the following equation: (Δsample/Δcontrol) × 100%. All determinations were performed in triplicate.

[3] = biological target: T2, intracellular tyrosinase activity in B16F10 cells (Mus musculus, UniProt P11344); experiment: Measurement of intracellular tyrosinase activity (α-MSH-induced); type: cell-based; details: B16-F10, 1 mg/ml, 24 h after 100 nM α-MSH
T2 construct: Cell lysate; endogenous in cells; host or cells: B16F10 mouse melanoma cells (BCRC, Hsinchu, Taiwan), α-MSH-stimulated
T2 sequence (P11344 19-533): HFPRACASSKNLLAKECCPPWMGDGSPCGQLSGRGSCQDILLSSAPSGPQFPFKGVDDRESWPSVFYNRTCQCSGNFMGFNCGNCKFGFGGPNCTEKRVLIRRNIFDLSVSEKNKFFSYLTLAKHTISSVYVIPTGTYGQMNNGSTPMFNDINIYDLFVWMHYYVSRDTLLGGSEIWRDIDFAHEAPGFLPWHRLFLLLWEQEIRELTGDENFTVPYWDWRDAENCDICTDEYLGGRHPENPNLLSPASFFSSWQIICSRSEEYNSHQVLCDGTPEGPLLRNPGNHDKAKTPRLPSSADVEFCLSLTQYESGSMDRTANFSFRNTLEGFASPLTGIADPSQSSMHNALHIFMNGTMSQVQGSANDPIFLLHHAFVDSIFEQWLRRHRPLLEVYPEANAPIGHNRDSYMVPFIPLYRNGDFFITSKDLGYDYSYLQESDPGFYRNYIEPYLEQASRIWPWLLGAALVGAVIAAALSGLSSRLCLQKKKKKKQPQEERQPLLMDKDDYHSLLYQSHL
Experimental: Fig 1. Inhibitory effects of Ac-P4 on α-MSH-induced tyrosinase activity in B16F10 cells. Ac-P4 inhibited α-MSH-induced tyrosinase activity in a dose-dependent manner […]
Measurement of intracellular tyrosinase activity
The cells were seeded in 24-well plates (8 × 10^4 cells/well), and cultured in 37 °C, 5% CO2 for 24 h. Then the cells were treated with 100 nM α-MSH for 24 h and then added Ac-P4 for 24 h. Cells rinsed with PBS twice and lysed with phosphate buffer (pH 6.8) containing 1% Triton X-100 followed by freezing and thawing three times. Centrifugation at 15,000 rpm for 10 min obtained clarified lysates. Cell lysate (90 μL) mixed with fresh prepared L-DOPA (10 μL) at 37 °C for 30 min. Tyrosinase activity was evaluated by the absorbance at 475 nm using an ELISA reader (Tecan, […]
Tyrosinase activity (%) = (△Abssample/△Abscontrol) ×100%.
(also on this page, place not known: (mg/ml)control 0 0.1 0.5 Relative (% control) 0 50 150 200 250 α-MSH + α-MSH - + + + + * 1 of 100 Ac-P4 Tyrosinase activity)
(1 picture or pasted object on this page, not shown here)

B16F10 cells = experiment: Cell viability assay (MTT); type: cell-based, mouse; details: 0.1 to 1 mg/mL, 24 h
Experimental: B16F10 cells were cultured in Dulbecco's modified Eagle's medium (DMEM; Gibco Life Technologies, Carlsbad, CA, USA), supplemented with 10% fetal bovine serum, 100 units/mL of penicillin G, 100 μg/mL of streptomycin, and 0.25 μg/mL of amphotericin, and then incubated at 37°C with 5% CO2. The viability of cells treated with N-acetyl-pentapeptides was determined using an MTT assay. Briefly, 3 × 10^4 B16F10 cells were seeded and adhered in 96-well plates. After 24 h, DMEM was removed and 200 μL of various concentrations of fresh DMEM and N-acetyl-pentapeptide solution were added, and the cells were incubated for 24 h. After incubation, the medium was removed, and 100 μL of MTT in PBS solution (0.5 mg/mL) was added to each well, and the cells were incubated for 40 min at 37°C. Subsequently, the MTT solution was removed and 100 μL of DMSO was added to each well, and the plate was gently shaken to dissolve the formazan crystals. The absorbance of each well was measured at 570 nm, using the ELISA reader. All determinations were performed in triplicate.

Row | Compound | Inhibition type (mushroom tyrosinase [1]) | K IS (mushroom tyrosinase [1]) [mg/mL] | Ki (mushroom tyrosinase [1]) [µM] | IC50 (mushroom tyrosinase [2]) [µM] | lag time (mushroom tyrosinase [2]; peptide concentration 1 mg/mL) [s] | inhibition type on diphenolase (diphenolase) | inhibition at 100 µg/mL (B16F10 melanoma cells; Mus musculus, B16-F10, 0.1 mg/mL, 24 h after 100 nM α-MSH, read-out: inhibitory effect on melanin production) [%] | inhibition at 500 µg/mL (B16F10 melanoma cells; Mus musculus, B16-F10, 0.5 mg/mL, 24 h after 100 nM α-MSH, read-out: inhibitory effect on melanin production) [%] | inhibition at 1000 µg/mL (B16F10 melanoma cells; Mus musculus, B16-F10, 1 mg/mL, 24 h after 100 nM α-MSH, read-out: inhibitory effect on melanin production) [%] | IC50 (B16F10 melanoma cells; Mus musculus, B16-F10, B16F10, α-MSH-induced, reillustrated in molarity, read-out: IC50 for inhibitory effect on melanin content) [µM] | inhibition at 1000 µg/mL [3] [%] | cytotoxicity in B16F10 cells (B16F10 cells) | lag time (mushroom tyrosinase [2]; peptide concentration 0.5 mg/mL (b28 words it as concentrations less than 0.5 mg/mL)) [s] | inhibitory effect on melanin production (B16F10 melanoma cells; 0.1 mg/mL, 24 h after 100 nM α-MSH) [%] | inhibitory effect on melanin production (B16F10 melanoma cells; 0.5 mg/mL, 24 h after 100 nM α-MSH) [%] | inhibitory effect on melanin production (B16F10 melanoma cells; 1 mg/mL, 24 h after 100 nM α-MSH) [%] | fold stronger than kojic acid in inhibiting melanin formation (B16F10 melanoma cells; ratio of melanin content IC50s (mM)) [fold]
1 | Ac-KSRFR-OH [Ac-P2, Ac-KSRFR] | Mixed | 2.003 | 382 | 1060 | 80 | – | – | – | – | – | – | – | – | – | – | – | –
2 | Ac-KSSFR-OH [Ac-P3, Ac-KSSFR] | Mixed | 1.685 | 415 | 1220 | 70 | – | – | – | – | – | – | – | – | – | – | – | –
3 | O=c1cc(CO)occ1O [kojic acid, reference compound] | – | – | – | – | – | mixed-type | 47.2 | 70.6 | 98.6 | 1510 | – | – | – | – | – | – | –
4 | Ac-RSRFS-OH [Ac-P4, Ac-RSRFS] | Mixed | 0.517 | – | – | 500 | – | – | – | – | – | 57.9 | did not induce any significant cytotoxicity | 80 | 48.63 | 78.18 | 94.7 | 16.7
5 | Ac-RSRFK-OH [Ac-P1, Ac-RSRFK] | Mixed | 1.278 | 376 | 1020 | 110 | – | – | – | – | – | – | – | – | – | – | – | –
